The values that follow are results of earlier work, collected in patent publication US20110052727A1, “Anti Influenza Nutritional Supplements” (priority 2009, published 2011).

Each structure is given as a SMILES string.

In the series the test system is lung-adapted PR-8 virus. Conditions: mouse, in vivo.

Consider `O=C/C=C/c1ccccc1` [CA, trans-cinnamaldehyde], for which the “virus yield reduction in bronchoalveolar lavage fluid” value is listed as 1 log.
